The test system of the test is CD69 by B lymphocytes in human whole blood activated with goat F(ab')2 anti-human IgM. In words: CD69 Whole Blood Assay (CD69 Hu Blood FACS). The class given is cell-based. The settings on record: Lymphocyte, CD69 positive of CD20 positive cells. The protocol:
CD69 is a type II C-type lectin involved in lymphocyte migration and cytokine secretion.
Human blood is obtained from healthy volunteers, with the following restrictions: 1 week drug-free, non-smokers. Blood (approximately 20 mls to test 8 compounds) is collected by venipuncture into Vacutainer® (Becton, Dickinson and Co.) tubes with sodium heparin.
Solutions of Formula I compounds at 10 mM in DMSO are diluted 1:10 in 100% DMSO, then are diluted by three-fold serial dilutions in 100% DMSO for a ten point dose-response curve. The compounds are further diluted 1:10 in PBS and then an aliquot of 5.5 μl of each compound is added in duplicate to a 2 ml 96-well plate; 5.5 μl of 10% DMSO in PBS is added as control and no-stimulus wells. Human whole blood—HWB (100 μl) is added to each well. After mixing the plates are incubated at 37° C., 5% CO2, 100% humidity for 30 minutes. Goat F(ab′)2 anti-human IgM (10 μl of a 500 μg/ml solution, 50 μg/ml final) is added to each well (except the no-stimulus wells) with mixing and the plates are incubated for an additional 20 hours. At the end of the 20 hour incubation, samples are incubated with fluorescent labeled antibodies for 30 minutes, at 37° C., 5% CO2, 100% humidity. Include induced control, unstained and single stains for compensation adjustments and initial voltage settings. Samples are then lysed with PharM Lyse™ (BD Biosciences Pharmingen) according to the manufacturer's instructions. Samples are then transferred to a 96 well plate suitable to be run on the BD Biosciences HTS 96 well system on the LSRII machine. Data acquired and Mean Fluorescence Intensity values were obtained using BD Biosciences DIVA Software. Results are initially analyzed by FACS analysis software (Flow Jo).

Setting [1] is: Homo sapiens, Table 1, anti-IgM stimulation.

IC50 data for 9 compounds are collected here from patent publication US9326985B2, “Heteroaryl pyridone and aza-pyridone amide compounds” (Genentech, Inc., priority 2013, dated 2016).

Regarding `Cn1cc(-c2ccnc(N3CCn4c(cc5c4CC(C)(C)C5)C3=O)c2CO)cc(NC(=O)C2(O)CC2)c1=O` [Compound 135, N-[5-[2-(7,7-dimethyl-4-oxo-1,2,6,8-tetrahydrocyclopenta[3,4]pyrrolo[3,5-b]pyrazin-3-yl)-3-(hydroxymethyl)-4-pyridyl]-1-methyl-2-oxo-3-pyridyl]-1-hydroxy-cyclopropanecarboxamide], the IC50 (in general, the midpoint of a concentration-inhibition curve) (Table 2, anti-IgM stimulation) was > 3.4 µM.

On to `COCC(=O)Nc1cc(-c2ccnc(N3CCn4c(cc5c4CC(C)(C)C5)C3=O)c2CO)cn(C)c1=O` [Compound 157, N-[5-[2-(7,7-dimethyl-4-oxo-1,2,6,8-tetrahydrocyclopenta[3,4]pyrrolo[3,5-b]pyrazin-3-yl)-3-(hydroxymethyl)-4-pyridyl]-1-methyl-2-oxo-3-pyridyl]-2-methoxy-acetamide], for which the IC50 (Table 2, anti-IgM stimulation) is > 4.4 µM.

`Cn1cc(-c2ccnc(N3CCn4c(cc5c4CC(C)(C)C5)C3=O)c2CO)cc(NC(=O)C2CCC2)c1=O` [Compound 101, N-[5-[2-(7,7-dimethyl-4-oxo-1,2,6,8-tetrahydrocyclopenta[3,4]pyrrolo[3,5-b]pyrazin-3-yl)-3-(hydroxymethyl)-4-pyridyl]-1-methyl-2-oxo-3-pyridyl]cyclobutanecarboxamide] came in with a half-maximal inhibitory concentration (IC50) (Table 1, anti-IgM stimulation) of 4.2 µM.

Under setting [1], `Cn1cc(-c2ccnc(N3CCn4c(cc5c4CC(C)(C)C5)C3=O)c2CO)cc(NC(=O)[C@H]2C[C@H]2F)c1=O` [Compound 119, (1R,2R)—N-[5-[2-(7,7-dimethyl-4-oxo-1,2,6,8-tetrahydrocyclopenta[3,4]pyrrolo[3,5-b]pyrazin-3-yl)-3-(hydroxymethyl)-4-pyridyl]-1-methyl-2-oxo-3-pyridyl]-2-fluoro-cyclopropanecarboxamide] had an IC50 of 0.122 µM.

On to `Cn1cc(-c2ccnc(N3CCc4c(cc5n4CCCC5)C3=O)c2CO)cc(NC(=O)C2CC2)c1=O` [Compound 133, N-[5-[3-(hydroxymethyl)-2-(1-oxo-3,4,6,7,8,9-hexahydropyrido[3,4-b]indolizin-2-yl)-4-pyridyl]-1-methyl-2-oxo-3-pyridyl]cyclopropanecarboxamide], for which the IC50 (Table 2, anti-IgM stimulation) was > 4.3 µM.

Consider `Cn1cc(-c2ccnc(N3CCn4c(cc5c4CC(C)(C)C5)C3=O)c2CO)cc(NC(=O)c2cccnc2)c1=O` [Compound 109, N-[5-[2-(7,7-dimethyl-4-oxo-1,2,6,8-tetrahydrocyclopenta[3,4]pyrrolo[3,5-b]pyrazin-3-yl)-3-(hydroxymethyl)-4-pyridyl]-1-methyl-2-oxo-3-pyridyl]pyridine-3-carboxamide], for which the half-maximal inhibitory concentration (IC50) (Table 1, anti-IgM stimulation) is > 5.2 µM.

In the case of `CCCC(=O)Nc1cc(-c2ccnc(N3CCn4c(cc5c4CC(C)(C)C5)C3=O)c2CO)cn(C)c1=O` [Compound 163, N-[5-[2-(7,7-dimethyl-4-oxo-1,2,6,8-tetrahydrocyclopenta[3,4]pyrrolo[3,5-b]pyrazin-3-yl)-3-(hydroxymethyl)-4-pyridyl]-1-methyl-2-oxo-3-pyridyl]butanamide], the half-maximal inhibitory concentration (IC50) (Table 2, anti-IgM stimulation) was 1.9 µM.

Turning to `Cn1cc(-c2ccnc(N3CCn4c(cc5c4CC(C)(C)C5)C3=O)c2CO)cc(NC(=O)[C@@H]2CCCO2)c1=O` (stereo in doubt) [Compound 149, (2S)—N-[5-[2-(7,7-dimethyl-4-oxo-1,2,6,8-tetrahydrocyclopenta[3,4]pyrrolo[3,5-b]pyrazin-3-yl)-3-(hydroxymethyl)-4-pyridyl]-1-methyl-2-oxo-3-pyridyl]tetrahydrofuran-2-carboxamide], the IC50 (Table 2, anti-IgM stimulation) was > 6.3 µM.

Under setting [1], `Cn1cc(-c2ccnc(-n3ncc4cc(C(C)(C)C)cc(F)c4c3=O)c2CO)cc(NC(=O)C2CC2)c1=O` [Compound 125, N-[5-[2-(6-tert-butyl-8-fluoro-1-oxo-phthalazin-2-yl)-3-(hydroxymethyl)-4-pyridyl]-1-methyl-2-oxo-3-pyridyl]cyclopropanecarboxamide] yielded an IC50 of 0.0625 µM.
